Entries after “also recorded” stand apart in the source; their conditions may differ. Where no end group is shown, it is not given here. Side-chain parts run from the residue outwards. EMCS = N-(6-maleimidocaproyloxy)succinimide crosslinker
What was measured:
[1] = test system: tumor-bearing mice seeded in the thigh with murine bladder cancer cell strain MBT2; assay: Neutron irradiation test (tumor volume, hot group vs cold group); format: in vivo; conditions: 7 mg/kg tail vein, neutron irradiation 40 minutes after administration; for effect of reducing the tumor volume, hot group versus cold group: tumor volumes (mm^3) measured for 21 days, FIGS. 5, 6
Experimental: IF7-^10BPA was administered to the tail vein of tumor-bearing mice seeded in the thigh with murine bladder cancer cell strain MBT2 at a dosage amount of 7 mg/kg. Thereafter, tumor volumes (mm^3) thereof were measured for 21 days, with respect to a group (hot group), which was irradiated 40 minutes after the tail-vein administration with neutrons for 30 minutes under the following conditions and a group (cold group), which was not irradiated. In the drawing, * represents p<0.05.
(1) Neutron fluence (cm^−2·s^−1) 2.1E^+12 (2.1×10^12) to 4.6E^+12 (2) Physical dose (Gy) Thermal neutrons: 2.8E^−1 to 6.1E^−1 Epithermal neutrons: 3.0E^−2 to 6.5E^−2 Fast neutrons: 2.1E^−1 to 4.6E^−1 Gamma rays: 2.1E^−1 to 4.6E^−1 Total: 8.9E^−1 to 1.5E^0
Administration was performed in the same manner as in Example 5, except that IF7-^10BSH was administered instead of IF7-^10BPA. Thereafter, tumor volumes (mm^3) were measured for 21 days with respect to the hot group which was irradiated with neutrons 40 minutes after the administration and the cold group which was not irradiated.
IF7-^10BPA was administered to tail vein of the tumor-bearing mice seeded with murine bladder cancer cell strain MBT2 at a dosage amount of 7 mg/kg. Thereafter, tumor volumes (mm^3) were measured for 21 days with respect to a hot group which was irradiated with neutrons 40 minutes after the tail-vein administration and a cold group which was not irradiated.
The administration was performed in the same manner as in Example 7, except that 1BPA was administered instead of IF7-^10BPA, tumor volumes (mm^3) were measured for 21 days with respect to the hot group irradiated 40 minutes after the administration with neutrons and the cold group which was not irradiated.

[2] = test system: tumor-bearing mice seeded on the thigh with a murine bladder cancer cell MBT2; conditions: mouse, in vivo
Experimental: Tumor accumulation ability was tested in tumor-bearing mice (7 mm in tumor diameter) seeded on the thigh with a murine bladder cancer cell MBT2, with respect to IF7-^10BPA synthesized in Synthesis Example 1 above and IF7-^10BSH synthesized in Synthesis Example 2 above. 100 μL (175 μg) of IF7-^10BPA or IF7-^10BSH adjusted to 7 mg/kg was administered to the tail vein of the tumor-bearing mice. ^10B levels (ppm) in the organs of the tumor-bearing mice were measured 5, 10, and 20 minutes after the tail-vein administration by the PGA-method.
^10B levels in the respective organs of the tumor-bearing mice were measured in the same manner as in Example 1, except that the measurement was performed 40 minutes after the administration in addition to 5, 10 and 20 minutes, the number of n in the respective data was 3 or more, and the measurement results were indicated in violin plots.
^10B levels in the respective organs of the tumor-bearing mice were measured in the same manner as in Example 3, except that instead of IF7-^10BPA, [10B]boronophenylalanine (^10BPA) in the same concentration was administered. The results are indicated in violin plots in FIG. 3B.
^10B levels in the respective organs of the tumor-bearing mice were measured in the same manner as in Comparative Example 2, except that the concentration of ^10BPA was changed from 7 mg/kg to 100 mg/kg. […]

[3] = test system: tumor-bearing mice (murine bladder cancer cell MBT2); assay: Tumor accumulation ability test, Comparative Example 1 (^10B levels in organs, ICP-AES method); format: in vivo; conditions: FIG. 2
Experimental: Additionally, as Comparative Example 1, a tumor accumulation ability test was similarly performed using R-D-fructopyranose, 2′ position of which is esterified with [10B]boronophenylalanine group represented by the formula (a) (hereinafter, simply referred to as “^10BPA-fructose”). 100 μL (2,000 μg) of ^10BPA-fructose whose dosage amount was increased to 100 mg/kg was administered to the tail vein of tumor-bearing mice. ^10B levels (ppm) in the respective organs of the tumor-bearing mice were measured 20, 40, and 60 minutes after the tail-vein administration by ICP-AES method. FIG. 2 is a drawing indicating ^10B levels (ppm) in the organs of the tumor-bearing mice at 20, 40, and 60 minutes after tail-vein administration of 100 μL (2,000 μg) of ^10BPA-fructose.

| Substance | effect of reducing the tumor volume, hot group IF7-^10BPA (Example 7) versus hot group ^10BPA (Comparative Example 5) ([1]; 21 days, FIGS. 6A, 6B) | effect of reducing the tumor volume, hot group versus cold group [1] | ^10B level in the tumor compared with ^10BPA 100 mg/kg (Comparative Example 3) [2] | accumulation of ^10B in the tumor tissue ([3]; 100 mg/kg (100 μL, 2,000 μg) tail vein, 20, 40, and 60 minutes after the administration) | discrimination of the tumor tissue from the other organs (^10B levels) ([3]; 100 mg/kg tail vein, 20, 40, and 60 minutes) |
| --- | --- | --- | --- | --- | --- |
| IF7-^10BPA: peptide IFLLWQRCRR (SEQ ID NO: 2) crosslinked with EMCS between cysteine thiol and terminal amino group of a ^10B boronophenylalanine compound (IFLLWQRC([EMCS-(10B)boronophenylalanine])RR) | effect of reducing the tumor volume was greater | effect of reducing the tumor volume was pronounced; also recorded: more pronounced in the hot group | not inferior |  |  |
| IF7-^10BSH: peptide IFLLWQRKRR (SEQ ID NO: 3) crosslinked with EMCS between lysine amino group and thiol group of sodium [10B]borocaptate (IFLLWQRK([EMCS-sodium (10B)borocaptate])RR) |  | effect of reducing the tumor volume was pronounced |  |  |  |
| R-D-fructopyranose, 2′ position of which is esterified with [10B]boronophenylalanine group represented by the formula (a) [^10BPA-fructose] |  |  |  | did not accumulate at all in the tumor tissue | did not significantly discriminate the tumor tissue from the other organs |

From US20210138274A1, “ACCUMULATIVE BORON 10 MEDICINE FOR BORON NEUTRON CAPTURE THERAPY FOR SELECTIVELY OR LOCALLY TARGETING TUMOR TISSUES IN SHORT TIME” (HIROSAKI UNIVERSITY, priority 2018, published 2021)
